Experiments:
peripheral leukocytes = test: Effect on the peripheral leucocytes number (WBC4000); format: in vivo, ddY mice; details: statement in words on Table 2 (image); comparison with control compounds A, B, C, D where stated; intraperitoneal, 4 days after administration
Procedure: (4) Effect on the peripheral leucocytes number: • Sarcoma 180 solid tumor cells […] were subcutaneously implanted into the right axilla of each mouse (body weight 20 ±2 g) of a group consisting of 5 male mice (ddY strain). 24 hours after implantation, a test compound was intraperitoneally administered to each animal. 4 days after the administration, blood (each 0.02 ml) was collected from the suborbital plexus vein of each tumor-carrying animal. The collected sample of blood was dispersed in 9.98 ml of Cell-Kit Seven solution. One drop of saponin solution was added to the sample to dissolve erythrocytes and then a microcell counter was used to count the number of leucocytes. On graph paper, the number of leucocytes was indicated by an arithmetic scale on the longitudinal axis and the dose of the test compound was indicated by a logarithmic scale on the lateral axis. The relationship between the number of peripheral leucocytes and the dose of the test compound was plotted and the dose (i.e., WBC4000) corresponding to 4000 peripheral leucocytes/mm3 (about half the number of leucocytes of normal mice) was obtained.

[1] = pH 7

Structure (SMILES) | WBC4000 (dosage reducing the peripheral leukocytes to 4000/mm3) (peripheral leukocytes) | further results
COC12C(COC(N)=O)C3=C(C(=O)C(C)=C(NCCCSSCCCNC4=C(C)C(=O)C5=C(C4=O)C(COC(N)=O)C4(OC)C6NC6CN54)C3=O)N1CC1NC12 (stereo not drawn) [Compound 1, 7-N,7'-N'-(dithioditrimethylene) dimitomycin C] | considerably increased | 
COC12C(COC(N)=O)C3=C(C(=O)C(C)=C(NCCCCSSCCCCNC4=C(C)C(=O)C5=C(C4=O)C(COC(N)=O)C4(OC)C6NC6CN54)C3=O)N1CC1NC12 (stereo not drawn) [Compound 4, 7-N,7'-N'-(dithioditetramethylene) dimitomycin C] | considerably increased | 
COC12C(COC(N)=O)C3=C(C(=O)C(C)=C(NCCCCCCSSCCCCCCNC4=C(C)C(=O)C5=C(C4=O)C(COC(N)=O)C4(OC)C6NC6CN54)C3=O)N1CC1NC12 (stereo not drawn) [Compound 8, 7-N,7'-N'-(dithiodihexamethylene) dimitomycin C] | considerably increased | 
COC12C(COC(N)=O)C3=C(C(=O)C(C)=C(NCCCCCCCCSSCCCCCCCCNC4=C(C)C(=O)C5=C(C4=O)C(COC(N)=O)C4(OC)C6NC6CN54)C3=O)N1CC1NC12 (stereo not drawn) [Compound 10, 7-N,7'-N'-(dithiodioctamethylene) dimitomycin C] |  | solubility (result in words) [1]: scarcely soluble in water
COC12C(COC(N)=O)C3=C(C(=O)C(C)=C(NCCCCSSCC(O)CO)C3=O)N1CC1NC12 (stereo not drawn) [Compound 26, 7-N-[4-(2,3-dihydroxypropyldithio)butyl] mitomycin C] | considerably increased | 
CO[C@@]12[C@H](COC(N)=O)C3=C(C(=O)C(C)=C(NCCCCSSC[C@H](N)C(=O)NCC(=O)O)C3=O)N1C[C@@H]1N[C@@H]12 [Compound 27] |  | solubility: > 39 mg/mL

Reference: patent EP0214303A1, “DISULFIDE COMPOUNDS AND ANTINEOPLASTIC AGENTS” (priority 1985, dated 1986)
